Experimental data published in patent US9790169B2, “IDO inhibitors” (BRISTOL-MYERS SQUIBB COMPANY, priority 2015, dated 2017).

Biological target: human IDO1 (Homo sapiens, UniProt P14902)
Experiment: Assessment of human IDO-1 inhibitory activity in HEK cells (human IDO1/HEK293 cells, kynurenine read-out with Ehrlich reagent, absorbance 490 nm)
Type: cell-based
Set-up: expressed in transfected cells
Conditions: HEK Human IDO-1 cellular assay
Method in brief: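 HEK293 cells stably expressing human IDO1 were seeded at 10,000 per well in phenol red-free RPMI with 10% FBS, treated with compound for 20 h at 37 °C. Kynurenine was measured after TCA (0.2% final) and 30 min at 50 °C, using Ehrlich reagent, A490. IC50 normalised to DMSO (0%) and 500 nM reference standard (100%).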

Chain of human IDO1 (P14902 whole entry): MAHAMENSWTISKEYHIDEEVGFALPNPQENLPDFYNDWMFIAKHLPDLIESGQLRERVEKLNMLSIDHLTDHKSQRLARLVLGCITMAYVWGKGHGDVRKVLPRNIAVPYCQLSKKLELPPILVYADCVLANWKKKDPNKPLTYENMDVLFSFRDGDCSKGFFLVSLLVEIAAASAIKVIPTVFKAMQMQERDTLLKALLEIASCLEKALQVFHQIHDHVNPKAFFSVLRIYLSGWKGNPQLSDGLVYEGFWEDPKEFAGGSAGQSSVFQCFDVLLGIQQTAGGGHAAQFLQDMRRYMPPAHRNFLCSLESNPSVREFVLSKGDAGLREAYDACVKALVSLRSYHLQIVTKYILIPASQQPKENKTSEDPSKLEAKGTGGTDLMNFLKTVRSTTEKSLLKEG

| Structure (SMILES) | IC50 [µM] |
| --- | --- |
| CC[C@@H](CC(=O)O)c1ccc(N2CCOC[C@@H]2C(C)C)c(Nc2ccc(Cl)cc2)c1 (single isomer, unassigned) [Example 78] | < 0.05 |
| COCC(CC(=O)O)c1ccc(N(CC(C)C)C2CCOCC2)c(NC(=O)Nc2ccc(Cl)cc2F)c1 (single isomer, unassigned) [Example 1217, 3-(3-(3-(4-Chloro-2-fluorophenyl)ureido)-4-(isobutyl(tetrahydro-2H-pyran-4-yl)amino)phenyl)-4-methoxybutanoic acid] | < 0.005 |
| CCC(CC(=O)O)c1ccc(N2CCC[C@H]2C(C)(C)O)c(Nc2ccc3c(c2)OC(F)(F)O3)c1 (single isomer, unassigned) [Example 821] | < 0.05 |
| CC[C@@H](CC(=O)O)c1ccc(N2CCOC[C@@H]2C(C)C)c(NC(=O)Nc2ccc(Cl)cc2F)c1 (single isomer, unassigned) [Example 75] | < 0.05 |
| CCC(CC(=O)O)c1ccc(N2CCC[C@H]2C(C)(C)O)c(Nc2cnc(OC)nc2)c1 (single isomer, unassigned) [Example 824] | > 0.05 |
| CCOc1ccc(NC(=O)Nc2cc(C(COC)CC(=O)O)ccc2N(CC(C)C)C2CCCCC2)cc1 (single isomer, unassigned) [Example 1235, 3-(4-(Cyclohexyl(isobutyl)amino)-3-(3-(4-ethoxyphenyl)ureido)phenyl)-4-methoxybutanoic acid] | < 0.005 |
| CCN(c1ccc(C(CC(=O)O)c2ccccc2)cc1Nc1ccc(Cl)cc1)C1CCOCC1 (single isomer, unassigned) [Example 590, 3-(3-((4-chlorophenyl)amino)-4-(ethyl(tetrahydro-2H-pyran-4-yl)amino)phenyl)-3-phenylpropanoic acid] | < 0.05 |
| CCOc1ccc(Nc2cc(C(CC)CC(=O)O)ccc2N2CCOC[C@H]2C(C)C)cc1 (single isomer, unassigned) [Example 894] | < 0.05 |
| CCC(CC(=O)O)c1ccc(N2CCC[C@H]2C(C)(C)O)c(Nc2ccc(F)cc2)c1 (single isomer, unassigned) [Example 840] | < 0.05 |
| CCOc1ccc(Nc2cc([C@H](CC)CC(=O)O)ccc2N(CC)C2CCOCC2)nc1 (single isomer, unassigned) [Example 522] | < 0.005 |
| CC(C)CN(c1ccc(C(C)CC(=O)O)cc1NC(=O)Nc1cncnc1)C1CCOCC1 (single isomer, unassigned) [Example 961, 3-(4-(isobutyl(tetrahydro-2H-pyran-4-yl)amino)-3-(3-(pyrimidin-5-yl)ureido)phenyl)butanoic acid] | > 0.05 |
| CCN(c1ccc([C@H](COC)CC(=O)O)cc1NC(=O)Nc1ccc(OC)nc1)C1CCOCC1 (single isomer, unassigned) [Example 437] | > 0.05 |
| CCC(CC(=O)O)c1ccc(N2CCC[C@H]2C(C)(C)O)c(NC(=O)Nc2ccc(Cl)cc2F)c1 (single isomer, unassigned) [Example 812] | > 0.05 |
| CCC(CC(=O)O)c1ccc(N2CCC[C@H]2C(C)(C)F)c(Nc2ccc3nc(C)sc3c2)c1 (single isomer, unassigned) [Example 794] | < 0.05 |
| CCc1ccc(Nc2cc([C@H](CC)CC(=O)O)ccc2N(CC)C2CCCCC2)cc1 (single isomer, unassigned) [Example 288] | < 0.05 |
| CC[C@@H](CC(=O)O)c1ccc(N(CC(C)(C)O)C2CCCCC2)c(Nc2ccc(F)cc2)c1 (single isomer, unassigned) [Example 225] | < 0.005 |
| CCC(CC(=O)O)c1ccc(N2CCC[C@H]2C(C)(C)O)c(Nc2ccnc(N3CCOCC3)n2)c1 (single isomer, unassigned) [Example 817] | > 0.05 |
| CCN(c1ccc([C@H](COC)CC(=O)O)cc1NC(=O)Nc1cc(C)on1)C1CCOCC1 (single isomer, unassigned) [Example 439] | > 0.05 |
| CC[C@H](CC(=O)O)c1ccc(N2CCOC[C@@H]2C(C)C)c(NC(=O)Nc2ccc(Cl)cc2F)c1 (single isomer, unassigned) [Example 86] | < 0.05 |
| CC[C@@H](CC(=O)O)c1ccc(N2CCC[C@@H]2C(C)(C)O)c(Nc2ccc(C#N)cc2)c1 (single isomer, unassigned) [Example 771] | < 0.05 |
| CCC(CC(=O)O)c1ccc(N(CC(C)C)C2CCCCC2)c(Nc2ccc(Cl)c(OC(F)F)c2)c1 (single isomer, unassigned) [Example 649] | < 0.05 |
| CC(CC(=O)O)c1ccc(N(CC(C)(C)O)C2CCOCC2)c(Nc2ccc(C#N)cc2)c1 (single isomer, unassigned) [Example 194, 3-(3-((4-cyanophenyl)amino)-4-((2-hydroxy-2-methylpropyl)(tetrahydro-2H-pyran-4-yl)amino)phenyl)butanoic acid] | < 0.05 |
| COCC(CC(=O)O)c1ccc(N(CC(C)C)CC(C)C)c(NC(=O)Nc2cncnc2)c1 (racemic) [Example 996, (+/−)-3-(4-(Diisobutylamino)-3-(3-(pyrimidin-5-yl)ureido)phenyl)-4-methoxybutanoic acid] | > 0.05 |

The remaining lines, values ahead:

| IC50 [µM] | Structure (SMILES) |
| --- | --- |
| < 0.05 | CC[C@H](CC(=O)O)c1ccc(N(CC)C2CCOCC2)c(Nc2ccc(Cl)c(OC)c2)c1 (single isomer, unassigned) [Example 521] |
| > 0.05 | CC[C@H](CC(=O)O)c1ccc(N(CC)C2CCOCC2)c(NC(=O)Nc2ccc3c(c2)CS(=O)(=O)C3)c1 (single isomer, unassigned) [Example 533] |
| < 0.005 | CCC(CC(=O)O)c1cc(F)c(N(CC(C)C)CC(C)C)c(Nc2ccc(Cl)cc2)c1 (single isomer, unassigned) [Example 99, 3-(3-((4-chlorophenyl)amino)-4-(diisobutylamino)-5-fluorophenyl)pentanoic acid] |
| > 0.05 | CCC(CC(=O)O)c1ccc(N2CCC[C@H]2C(C)(C)O)c(NC(=O)Nc2ccc(OC)cc2F)c1 (single isomer, unassigned) [Example 814] |
| < 0.05 | COCC(CC(=O)O)c1cc(F)c(N(CC(C)C)CC(C)C)c(NC(=O)Nc2cncnc2)c1 (single isomer, unassigned) [Example 1183, 3-(4-(Diisobutylamino)-3-fluoro-5-(3-(pyrimidin-5-yl)ureido)phenyl)-4-methoxybutanoic acid] |
| > 0.05 | CCC(CC(=O)O)c1ccc(N2CCC[C@@H]2C(C)(C)O)c(Nc2ccc3c(c2)OC(F)(F)O3)c1 (single isomer, unassigned) [Example 781] |
| < 0.05 | CCCN(CC1CC1)c1ccc(C(CC)CC(=O)O)cc1Nc1ccc2c(c1)OC(F)(F)O2 (single isomer, unassigned) [Example 659, 3-(4-((cyclopropylmethyl) (propyl)amino)-3-((2,2-difluorobenzo[d][1,3]dioxol-5-yl)amino)phenyl)pentanoic acid] |
| < 0.005 | CC[C@H](CC(=O)O)c1ccc(N(CC(C)C)C2CCS(=O)(=O)CC2)c(Nc2ccc3c(c2)OC(F)(F)O3)c1 (single isomer, unassigned) [Example 215] |
| < 0.005 | CCC(CC(=O)O)c1cc(NC(=O)Nc2cncnc2)c(N(CC(C)C)C2CCCCC2)cc1F (single isomer, unassigned) [Example 1123, 3-(4-(cyclohexyl(isobutyl)amino)-2-fluoro-5-(3-(pyrimidin-5-yl)ureido)phenyl)pentanoic acid] |
| < 0.005 | CCC(CC(=O)O)c1ccc(N2CCOC[C@H]2C(C)C)c(Nc2ccc(F)cc2)c1 (single isomer, unassigned) [Example 901] |
| < 0.005 | CC[C@@H](CC(=O)O)c1ccc(N(CC)C2CCCCC2)c(Nc2ccc(C#N)cc2)c1 (single isomer, unassigned) [Example 283] |
| < 0.005 | CCCN(c1ccc([C@@H](CC)CC(=O)O)cc1Nc1ccc(Cl)cc1)C1CCOCC1 (single isomer, unassigned) [Example 541] |
| > 0.05 | CCOc1ncc(Nc2cc(C(C)CC(=O)O)ccc2N(CC(C)(C)O)C2CCOCC2)cn1 (single isomer, unassigned) [Example 191, 3-(3-((2-Ethoxypyrimidin-5-yl)amino)-4-((2-hydroxy-2-methylpropyl)(tetrahydro-2H-pyran-4-yl)amino)phenyl)butanoic acid] |
| < 0.05 | CC[C@@H](CC(=O)O)c1ccc(N2CCOC[C@@H]2C(C)C)c(Nc2ccc(C#N)cc2)c1 (single isomer, unassigned) [Example 83] |
| < 0.005 | CCC(CC(=O)O)c1ccc(N(CC)C2CCOCC2)c(NC(=O)Nc2ccc(C)cc2)c1 (single isomer, unassigned) [Example 487 Enantiomer 1, 3-(4-(Ethyl(tetrahydro-2H-pyran-4-yl)amino)-3-(3-(p-tolyl)ureido)phenyl)pentanoic acid] |
| < 0.005 | CCC(CC(=O)O)c1cc(F)c(N(CC(C)C)CC(C)C)c(NC(=O)Cc2ccc(F)cc2F)c1 (single isomer, unassigned) [Example 1093 E1] |
| > 0.05 | CCN(c1ccc(C(CC(=O)O)c2ccccc2)cc1NC(=O)Nc1cc(C)on1)C1CCOCC1 (single isomer, unassigned) [Example 587, 3-(4-(ethyl(tetrahydro-2H-pyran-4-yl)amino)-3-(3-(5-methylisoxazol-3-yl)ureido)phenyl)-3-phenylpropanoic acid] |
| < 0.05 | COCC(CC(=O)O)c1cc(F)c(N(CC(C)C)CC(C)C)c(Nc2ccc3c(c2)OC(F)(F)O3)c1 (single isomer, unassigned) [Example 927, 3-(3-((2,2-difluorobenzo[d] [1,3]dioxol-5-yl)amino)-4-(diisobutylamino)-5-fluorophenyl)-4-methoxybutanoic acid.] |
| < 0.005 | CCN(c1ccc(C(C)(C)CC(=O)O)cc1Nc1cnc(OCC2CC2)nc1)C1CCOCC1 [Example 163, 3-(3-((2-(cyclopropylmethoxy)pyrimidin-5-yl)amino)-4-(ethyl (tetrahydro-2H-pyran-4-yl)amino)phenyl)-3-methylbutanoic acid] |
| < 0.05 | CC[C@H](CC(=O)O)c1ccc(N(CC)C2CCOCC2)c(NC(=O)Nc2ccc(F)cc2)c1 (single isomer, unassigned) [Example 527] |
